Test results from the NIST ThermoML archive (doi:10.1021/je030151s).
Numbers after ± are expanded uncertainties.

Key:
[1] = 101.3 kPa, Liquid; for viscosity: Capillary tube (Ostwald / Ubbelohde) method
[2] = xn = mol fraction of the nth substance listed; details: 101.3 kPa, Liquid, x2 = 0; for viscosity: Capillary tube (Ostwald / Ubbelohde) method

Structure (SMILES)	mass density ([1]; 293.15 K) [kg/m3]	speed of sound ([1]; 293.15 K) [m/s]	viscosity ([1]; 293.15 K) [mPa·s]	mass density ([1]; 303.15 K) [kg/m3]	speed of sound ([1]; 303.15 K) [m/s]	viscosity ([1]; 303.15 K) [mPa·s]	mass density ([1]; 313.15 K) [kg/m3]	speed of sound ([1]; 313.15 K) [m/s]	viscosity ([1]; 313.15 K) [mPa·s]	viscosity ([2]; 293.15 K) [mPa·s]	mass density ([2]; 293.15 K) [kg/m3]	speed of sound ([2]; 293.15 K) [m/s]	viscosity ([2]; 303.15 K) [mPa·s]	mass density ([2]; 303.15 K) [kg/m3]	speed of sound ([2]; 303.15 K) [m/s]	viscosity ([2]; 313.15 K) [mPa·s]	mass density ([2]; 313.15 K) [kg/m3]	speed of sound ([2]; 313.15 K) [m/s]
Cc1ccccc1C [1,2-dimethylbenzene]	880.2 ± 1.2	1365.6 ± 3.5	0.8092 ± 0.0098	871.8 ± 1.2	1339 ± 3.5	0.7172 ± 0.0089	863.2 ± 1.3	1297.5 ± 3.4	0.6292 ± 0.0079	–	–	–	–	–	–	–	–	–
Cc1ccccc1C [1,2-dimethylbenzene] + CCC(=O)CC	–	–	–	–	–	–	–	–	–	0.8092 ± 0.0098	880.2 ± 1.2	1365.6 ± 3.5	0.7172 ± 0.0089	871.8 ± 1.2	1339 ± 3.5	0.6292 ± 0.0079	863.2 ± 1.3	1297.5 ± 3.4
CCc1ccccc1 [ethylbenzene]	867.4 ± 1.2	1333.4 ± 3.5	0.6793 ± 0.0085	856.5 ± 1.2	1295.7 ± 3.4	0.6006 ± 0.0077	848.9 ± 1.3	1259.8 ± 3.4	0.5355 ± 0.007	–	–	–	–	–	–	–	–	–
CCc1ccccc1 [ethylbenzene] + CCC(=O)CC	–	–	–	–	–	–	–	–	–	0.6793 ± 0.0085	867.4 ± 1.2	1333.4 ± 3.5	0.6006 ± 0.0077	856.5 ± 1.2	1295.7 ± 3.4	0.5355 ± 0.007	848.9 ± 1.3	1259.8 ± 3.4
CCC(=O)CC [pentan-3-one]	814.4 ± 1.1	1230.7 ± 3.3	0.4714 ± 0.0064	804.7 ± 1.1	1197.8 ± 3.3	0.4231 ± 0.0059	794.9 ± 1.2	1159.1 ± 3.3	0.3799 ± 0.0055	–	–	–	–	–	–	–	–	–
